Test system: Plasmodium falciparum
Assay: Antimicrobial activity against Plasmodium falciparum
Format: functional, organism-based

Compound | IC50
CC1C2c3ccccc3C(c3ccccc32)C1C(N)=O (centres undefined) | 32 µM
CC1(C)N=C(N)N=C(N)N1c1ccc(Cl)cc1 [CYCLOGUANIL] | 3 µM
Cn1c2nc3ccccc3c-2cc2c(Br)cccc21 | 32 µM
Oc1ccc(Nc2ccnc3cc(Cl)ccc23)cc1 | 19 µM
O=P(O)(O)C(Nc1cccnc1)P(=O)(O)O | 200 µM
Nc1nc(N)c(-c2cccc(Cl)c2)c(CCCOC(=O)c2ccccc2)n1 | 8 µM
COc1cc(C)c2c(Oc3cccc(C(F)(F)F)c3)c(OC)cc(NC(C)CCCN)c2n1 (centres undefined) [TAFENOQUINE] | 147 µM
COc1ccnc(C[S+]([O-])c2nc3cc(OC(F)F)ccc3[nH]2)c1OC (centres undefined) [PANTOPRAZOLE] | 39 µM
CN(C)c1ccc(Nc2c3ccccc3nc3cc(Cl)ccc23)cc1 | 1 µM
NC(=O)C1=CC2c3ccccc3C1c1ccccc12 | 35 µM
CN(C)C(=O)C1C2c3ccccc3C(c3ccccc32)C1C(=O)O (centres undefined) | 36 µM
COc1cc(/C(N)=N/O)cc(OC)c1OC | 2010 µM
C=C[C@H]1CN2CC[C@H]1C[C@@H]2[C@@H](O)c1ccnc2ccccc12 [CINCHONINE] | 23 µM
CCCCCCC(CCCC)C(O)(P(=O)(O)O)P(=O)(O)O (centres undefined) | 200 µM
COc1cc(COc2ccc(Cc3cnc(N)nc3N)cc2)cc(OC)c1OC | 21 µM
O=C(NCc1ccccc1)C1=CC2c3ccccc3C1c1ccccc12 | 52 µM
COc1ccc(Cc2cnc(N)nc2N)cc1OCc1ccccc1 | 4 µM
C=C[C@@H]1CN2CC[C@@]3(CNc4cc(O)ccc43)[C@@H]2C[C@@H]1C[C@H]1c2[nH]c3ccccc3c2CCN1C [ISOSTRYCHNOFOLINE] | 6 µM
CN(C)/C=N\C(=O)C1C2c3ccccc3C(c3ccccc32)C1C(=O)/N=C\N(C)C (centres undefined) | 34 µM
CO[C@H]1/C=C/O[C@@]2(C)Oc3c(C)c(O)c4c(O)c(c(/C=N/N5CCN(C)CC5)c(O)c4c3C2=O)NC(=O)/C(C)=C\C=C\[C@H](C)[C@H](O)[C@@H](C)[C@@H](O)[C@@H](C)[C@H](OC(C)=O)[C@@H]1C [RIFAMPIN] | 1 µM
COc1cc(NC(C)CCCN)c2nccc(C)c2c1OCCCCc1ccccc1 (centres undefined) | 174 µM
CCc1nc(N)nc(N)c1-c1ccc(Cl)cc1 [PYRIMETHAMINE] | 100 µM
O=C1NC(=O)C(C(=O)Nc2ccc(Cl)cc2)c2ccccc21 (centres undefined) [TESICAM] | 16 µM
CN(C)CC1C2c3ccccc3C(c3ccccc32)C1CO (centres undefined) | 35 µM
O=C1Nc2ccc(Br)cc2/C1=C/C(=O)c1ccccc1 | 3 µM

Compound | IC50
CO[C@H]1O[C@@H]2O[C@@]3(C)CC[C@H]4[C@H](C)CC[C@@H]([C@H]1C)[C@@]24OO3 | 1000 µM
CCN(CC)CCCC(C)Nc1ccncc1 (centres undefined) | 92 µM
CCCCCC(O)(P(=O)(O)O)P(=O)(O)O | 6 µM
C/C=C1/CN2CC[C@]34c5ccccc5N5C(=O)C([C@H]6C[C@]78c9ccccc9N9C(=O)C=C[C@@H]([C@H]97)[C@H]7C[C@@H]8N6C/C7=C/C)=C[C@H]([C@H]53)[C@H]1C[C@H]24 [SUNGUCINE] | 2 µM
CC(C)NC(=N)NC(=N)Nc1ccc(Cl)cc1 [PROGUANIL] | 36 µM
CC(C)(C)c1cc(NC(P(=O)(O)O)P(=O)(O)O)cc(C(C)(C)C)c1 | 200 µM
NC1=NC(c2ccccc2)N(c2cccc(Cl)c2)C(N)=N1 (centres undefined) | 1 µM
O=C1Nc2ccccc2/C1=C/C(=O)c1ccc(Br)cc1 | 4 µM
CCN(CC)Cc1cc(Nc2ccnc3cc(Cl)ccc23)cc(-c2ccc(Cl)cc2)c1F | 41 µM
C=C[C@@H]1CN2CC[C@@]3(CNc4c3ccc(O)c4[C@H]3CCCN3C)[C@@H]2C[C@@H]1C[C@H]1c2[nH]c3ccccc3c2CCN1C [STRYCHNOPHYLLINE] | 3 µM
O=P(O)(O)C(Nc1ccc(I)cn1)P(=O)(O)O | 200 µM
N/C(=N\O)c1cc(O)cc(O)c1 | 589 µM
O=C1C(O)=C([C@H]2CC[C@H](c3ccc(Cl)cc3)CC2)C(=O)c2ccccc21 [ATOVAQUONE] | 1 µM
Nc1ncc(Cc2ccc(OCc3ccccc3)cc2)c(N)n1 | 21 µM
NC1=NC(c2cccc(OCc3ccccc3)c2)N(c2cccc(Cl)c2)C(N)=N1 (centres undefined) | 8 µM
CN(C)CC1=C(CN(C)C)C2c3ccccc3C1c1ccccc12 | 3 µM
CC(=O)[C@H]1CC[C@H]2[C@@H]3CCC4=CC(=O)CC[C@]4(C)[C@H]3CC[C@]12C [PROGESTERONE] | 24 µM
C=C/C(C)=C/[C@@]1(C)SC(=O)C(C)=C1O [THIOLACTOMYCIN] | 49 µM
O=C(NO)c1cccc(O)c1O | 6 µM
COc1cc(Cc2cnc(N)nc2N)ccc1OCc1cc(OC)c(OC)c(OC)c1 | 31 µM
O=C1Nc2ccccc2/C1=C/C(=O)c1ccc(F)cc1 | 1 µM
CCc1nc(N)nc(N)c1Cc1cc(OC)c(OC)c(OC)c1 | 50 µM
CN(C)[C@@H]1C(O)=C(C(N)=O)C(=O)[C@@]2(O)C(O)=C3C(=O)c4c(O)cccc4[C@@](C)(O)[C@H]3[C@H](O)[C@@H]12 [OXYTETRACYCLINE] | 34 µM
CNCCCN1c2ccccc2CCc2ccccc21 [DESIPRAMINE] | 12 µM
NC1=NC(c2cccc(OCCCOc3cc(Cl)c(Cl)cc3Cl)c2)N(c2cccc(Cl)c2)C(N)=N1 (centres undefined) | 9 µM

Compound | IC50
CCCCCCCCCCCC(O)(P(=O)(O)O)P(=O)(O)O | 1 µM
C[C@H]1[C@@H](O)O[C@@H]2O[C@@]3(C)CC[C@H]4[C@H](C)CC[C@@H]1[C@@]24OO3 [ARTENIMOL] | 1000 µM
Nc1ncc(Cc2ccc(OCc3ccccc3)c(OCc3ccccc3)c2)c(N)n1 | 3 µM
O=C1Nc2ccccc2/C1=C\c1c(Cl)cccc1Cl | 17 µM
COc1ncnc(NS(=O)(=O)c2ccc(N)cc2)c1OC [SULFADOXINE] | 37 µM
Cn1c2nc3ccccc3c-2cc2cc(F)ccc21 | 5 µM
O=C1Nc2ccccc2/C1=C/C(=O)c1ccccc1 | 4 µM
Nc1ncc(Cc2cccc(OCc3ccccc3)c2)c(N)n1 | 3 µM
C=CCC1Cc2c(c3ccccc3c3nc4ccccc4nc23)OC1(C)C (centres undefined) | 20 µM
CNCC(O)CC12CCC(c3ccccc31)c1ccccc12 (centres undefined) [OXAPROTILINE] | 245 µM
CC(C)=CCCC(C)CC[C@@]1(C)SC(=O)C(C)=C1O (some centres undefined) [THIOLACTOMYCIN 5] | 57 µM
Cc1c(O)noc1-c1ccccc1 | 29 µM
CN(C)CCCC1(c2ccc(F)cc2)OCc2cc(C#N)ccc21 (centres undefined) [CITALOPRAM] | 222 µM
COc1cc(NC(C)CCCN)c2ncccc2c1 (centres undefined) [PRIMAQUINE] | 105 µM
CC[C@H]1CN2CCc3c([nH]c4cc(O)ccc34)[C@@H]2C[C@@H]1C[C@H]1c2[nH]c3ccccc3c2CCN1C | 5 µM
COCCCOc1ccnc(C[S+]([O-])c2nc3ccccc3[nH]2)c1C (centres undefined) [RABEPRAZOLE] | 7 µM
OC(c1cc(C(F)(F)F)nc2c(C(F)(F)F)cccc12)C1CCCCN1 (centres undefined) [MEFLOQUINE] | 5 µM
O=P(O)(O)C(NC1CC1)P(=O)(O)O [(CYCLOPROPYLAMINO)METHYLENEDIPHOSPHONIC ACID] | 200 µM
CC(C)=CC[C@@]1(C)SC(=O)C(C)=C1O [THIOLACTOMYCIN 2] | 100 µM
O=P(O)(O)C(NC1CCCC1)P(=O)(O)O [(CYCLOPENTYLAMINO)METHYLENEDIPHOSPHONIC ACID] | 200 µM
COc1ccc2nc3cc(Cl)ccc3c(Nc3cc(CN4CCCC4)c(O)c(CN4CCCC4)c3)c2n1 [PYRONARIDINE] | 64 µM
O=C1Nc2ccccc2/C1=C\C1CCCCN1 (centres undefined) | 21 µM
CC(C)=CCc1c(O)c2ccccc2c2nc3ccccc3nc12 | 9 µM
CC1(C)Oc2c(c3nc4ccccc4nc3c3ccccc23)CC1S(=O)(=O)O (centres undefined) | 6 µM
c1ccc(N2CCN(c3ccccc3)C2c2ccc(N3CCN(c4ccc(C5N(c6ccccc6)CCN5c5ccccc5)cc4)CC3)cc2)cc1 | 1 µM

Compound | IC50
CC1(C)CCc2c(c3ccccc3c3nc4ccccc4nc23)O1 | 20 µM
CCn1cc(C(=O)O)c(=O)c2cc(F)c(N3CCNCC3)cc21 [NORFLOXACIN] | 75 µM
CCCCC1C(=O)N(c2ccccc2)N(c2ccc(O)cc2)C1=O (centres undefined) [OXYPHENBUTAZONE ANHYDROUS] | 15 µM
N/C(=N\O)c1cc(O)c(O)c(O)c1 | 38 µM
NS(=O)(=O)c1ccc(Nc2c3ccc(Cl)cc3nc3cc(Cl)ccc23)cc1 | 7 µM
C=C(C)[C@@H]1CC[C@]2(C)CC[C@]3(C)[C@H](CC[C@@H]4[C@@]5(C)CC[C@H](O)C(C)(C)[C@@H]5CC[C@]43C)[C@@H]12 [LUPEOL] | 28 µM
NC1=NC(c2cccc(Oc3ccccc3)c2)N(c2cccc(Cl)c2)C(N)=N1 (centres undefined) | 4 µM
CC(=O)NO [ACETOHYDROXAMIC ACID] | 1030 µM
O=C1Cc2c([nH]c3ccc(Br)cc23)-c2ccccc2N1 [KENPAULLONE] | 4 µM
NC1=NC(c2cccc(Oc3cccc(C(F)(F)F)c3)c2)N(c2cccc(Cl)c2)C(N)=N1 (centres undefined) | 3 µM
CCCCCCOc1c(OC)cc(NC(C)CCCN)c2nc(OC)c(C)cc12 (centres undefined) | 38 µM
CN1CCN(CCCN2c3ccccc3Sc3ccc(C(F)(F)F)cc32)CC1 [TRIFLUOPERAZINE] | 6 µM
CC1(C)Oc2c(c3nc4ccccc4nc3c3ccccc23)CC1I (centres undefined) | 2 µM
CN(C)c1ccc(O)c2c1C[C@H]1C[C@H]3[C@H](N(C)C)C(O)=C(C(N)=O)C(=O)[C@@]3(O)C(O)=C1C2=O [MINOCYCLINE] | 3 µM
CC(=O)OCCCc1nc(N)nc(N)c1-c1cccc(Cl)c1 | 2 µM
CC(C)(C)NCc1cc(Nc2ccnc3cc(Cl)ccc23)cc(-c2ccc(Cl)cc2)c1O [TEBUQUINE] | 53 µM
CCCCCCCCCCC(O)(P(=O)(O)O)P(=O)(O)O | 200 µM
CC1=C(O)[C@@](C)(Cc2cccc(C(=O)c3ccccc3)c2)SC1=O [THIOLACTOMYCIN 8] | 16 µM
O=C(NO)c1ccccc1 [BENZOHYDROXAMATE] | 17 µM
O=C1Cc2c([nH]c3ccc([N+](=O)[O-])cc23)-c2ccccc2N1 [ALSTERPAULLONE] | 4 µM
C=C[C@H]1CN2CCc3c([nH]c4ccc(O)cc34)[C@@H]2C[C@@H]1C[C@H]1c2[nH]c3ccccc3c2CCN1C | 2 µM
CCc1nc(N)nc(N)c1-c1cccc(Cl)c1 | 9 µM
CN(C)/N=N\C(=O)C1C2c3ccccc3C(c3ccccc32)C1C(=O)/N=N/N(C)C (centres undefined) | 33 µM
CCCCCCC(O)(P(=O)(O)O)P(=O)(O)O | 4 µM

— ChEMBL document CHEMBL1212812, “Multi-target spectral moment QSAR versus ANN for antiparasitic drugs against different parasite species” (Bioorg Med Chem, 2010)
